Data taken from article PMC3015019 (Biological psychiatry, 2010).
Structures can show the parent of a compound that is named as a salt.

Key:
[1] = test system: DA levels in dialysates from the NAc shell; assay: In-vivo microdialysis of extracellular DA in the NAc shell of freely moving rats; details: rat; for time for DA levels to return to basal levels after injection: cocaine: highest dose
[2] = target: T1, σ2 receptor (Cavia porcellus, UniProt H0V073); assay: Sigma 2 receptor binding, [3H]DTG displacement in presence of; design: species or system guinea pig; details: ratio of σ2 to σ1 affinity values
T1 sequence (H0V073 1-176): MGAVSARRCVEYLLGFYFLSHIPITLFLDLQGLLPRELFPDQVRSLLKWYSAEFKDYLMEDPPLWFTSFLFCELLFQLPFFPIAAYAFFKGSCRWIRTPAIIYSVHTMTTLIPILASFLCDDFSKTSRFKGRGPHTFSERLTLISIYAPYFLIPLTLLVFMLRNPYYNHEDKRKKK

[3] = target: σ1 receptor (Cavia porcellus, UniProt Q60492); assay: Sigma 1 receptor binding, [3H]; design: species or system guinea pig
[4] = 10–30 mg/kg i.p., administered alone

Sequence of σ1 receptor (Q60492 whole entry): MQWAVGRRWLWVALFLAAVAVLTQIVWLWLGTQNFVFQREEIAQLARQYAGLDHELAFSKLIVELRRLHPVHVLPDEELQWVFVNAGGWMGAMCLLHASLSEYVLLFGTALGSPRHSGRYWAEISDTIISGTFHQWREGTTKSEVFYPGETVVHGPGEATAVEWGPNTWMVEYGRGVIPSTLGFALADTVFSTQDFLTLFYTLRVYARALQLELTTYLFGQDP

CN(CCc1ccc(Cl)c(Cl)c1)CCN1CCCC1 [BD 1008]
DA levels at 2 hr after injection, antagonist alone ([1]; 10 mg/kg i.p., administered alone): ~75 % of basal control values

CN(C)CCN(C)CCc1ccc(Cl)c(Cl)c1 [BD 1047]
σ2/σ1 [2]: 15.2

CN1CCN(CCc2ccc(Cl)c(Cl)c2)CC1 [BD 1063]
σ2/σ1 [2]: 70.9
later decrease in DA levels, antagonist alone [1, 4]: about 80 % of baseline
transient (<30 min) non-significant increase in DA levels, antagonist alone [1, 4]: about 30%

COC(=O)[C@H]1[C@@H](OC(=O)c2ccccc2)C[C@@H]2CC[C@H]1N2C [Cocaine, (−)-cocaine hydrochloride]
Ki [3]: 5.19 µM
time for DA levels to return to basal levels after injection ([1]; i.v.): ≤ 50 min

Cc1ccccc1N=C(N)Nc1ccccc1C [DTG]
time of maximal effect on DA levels ([1]; 3.2 mg/kg i.v.): 20 min
time of maximal effect on DA levels ([1]; 5.6 mg/kg i.v.): ≤ 10 min
acute toxicity ([1]; i.v., doses higher than 5.6 mg/kg): signs of acute toxicity
time for DA levels to return to basal levels after injection ([1]; i.v.): ≤ 45 min

CC(=O)c1ccc2c(c1)oc(=O)n2CCCCN1CCN(c2ccc(F)cc2)CC1 [SN79]
effect on extracellular levels of DA, antagonist alone ([1]; 1–3 mg/kg i.p., up to 100 min after administration): did not significantly modify
